Reference: patent US9650395B2, “Antibacterial compounds and methods for use” (PTC Therapeutics, Inc., priority 2011, dated 2017)
≈ marks a conversion by molar mass, not a printed value.

How the values were obtained:
[1] = system: Pseudomonas aeruginosa (P. aeruginosa) 27853; assay: Antibacterial activity, MIC, P. aeruginosa 27853; assay type: cell-based; details: Pseudomonas aeruginosa, P. aeruginosa 27853; read-out: MIC 27853
Source text: (§1) The antibacterial activity from a microbroth dilution method may be presented as the minimum inhibitory concentration (MIC in […]). The MIC value is the lowest concentration of a drug which prevents macroscopically visible bacterial growth under test conditions.
Antibacterial activity of test compounds against the Gram-negative bacterium Pseudomonas aeruginosa (P. aeruginosa) 27853 is shown in Table 5.

[2] = system: E. coli ELZ4000 (MDR clinical isolate); assay: Antibacterial activity, MIC, MDR E. coli ELZ4000; assay type: cell-based, Escherichia coli; details: Escherichia coli; E. coli ELZ4000, MDR clinical isolate; read-out: MIC ELZ4000
[3] = system: Gram-positive Staphylococcus aureus (S. aureus) 29213; assay: Antibacterial activity, microbroth dilution MIC, S. aureus 29213; assay type: cell-based; details: Staphylococcus aureus; S. aureus 29213, microbroth dilution; read-out: MIC, 29213
[4] = system: super sensitive Gram-negative Escherichia coli (E. coli) BAS849; assay: Antibacterial activity, microbroth dilution MIC, E. coli BAS849; assay type: cell-based; details: Escherichia coli; E. coli BAS849, microbroth dilution; read-out: MIC, BAS849
[5] = system: Neisseria meningitidis (N. meningitidis) 13090; assay: Antibacterial activity, MIC, N. meningitidis 13090; assay type: cell-based; details: Neisseria meningitidis; N. meningitidis 13090; read-out: MIC 13090
[6] = system: quinolone resistant E. coli LZ3111; assay: Antibacterial activity, MIC, quinolone resistant E. coli LZ3111; assay type: cell-based, Escherichia coli; details: Escherichia coli, read-out: MIC, LZ3111
Source text: as §1
Mutations in these regions are known to confer a high level resistance to the quinolone class of antibiotics.

[7] = system: Haemophilus influenzae (H. influenzae) 49247; assay: Antibacterial activity, MIC, H. influenzae 49247; assay type: cell-based; details: Haemophilus influenzae; H. influenzae 49247; read-out: MIC 49247
Source text: as §1
Antibacterial activity of test compounds against the Gram-negative bacteria Haemophilus influenzae (H. influenzae) 49247, Moraxella catarrhalis (M. catarrhalis) 25238 and Neisseria meningitidis (N. meningitidis) 13090 is shown in Table 6.

[8] = system: control Gram-negative E. coli 25922 strain; assay: Antibacterial activity, microbroth dilution MIC, E. coli 25922; assay type: cell-based, Escherichia coli; details: Escherichia coli; E. coli 25922, microbroth dilution; read-out: MIC, 25922
[9] = system: Moraxella catarrhalis (M. catarrhalis) 25238; assay: Antibacterial activity, MIC, M. catarrhalis 25238; assay type: cell-based; details: Moraxella catarrhalis, M. catarrhalis 25238; read-out: MIC 25238
[10] = system: E. coli ELZ4251 (MDR clinical isolate); assay: Antibacterial activity, MIC, MDR E. coli ELZ4251; assay type: cell-based, Escherichia coli; details: Escherichia coli, E. coli ELZ4251, MDR clinical isolate; read-out: MIC ELZ4251

Structure (SMILES)	MIC [1] [mg/L]	MIC [2] [mg/L]	MIC [3] [mg/L]	MIC [4] [mg/L]	MIC [5] [mg/L]	MIC [6] [mg/L]	MIC [7] [mg/L]	MIC [8] [mg/L]	MIC [9] [mg/L]	MIC [10] [mg/L]
CCCc1cc(C(=O)O)c(=O)[nH]c1-c1ccc(N(C)C)cc1 [Cpd 8, 6-[4-(dimethylamino)phenyl]-2-oxo-5-propyl-1,2-dihydropyridine-3-carboxylic acid]	12.5 to 150 (≈ 41.6 to 499 µM)	12.5 to 150 (≈ 41.6 to 499 µM)	12.5 to 150 (≈ 41.6 to 499 µM)	< 1	< 1	12.5 to 150 (≈ 41.6 to 499 µM)	< 1	3.5 to 12.5 (≈ 11.7 to 41.6 µM)	< 1	12.5 to 150 (≈ 41.6 to 499 µM)
CN(C)c1ccc(-c2[nH]c(=O)c(C(=O)O)cc2C2CC2)cc1 [Cpd 12, 5-cyclopropyl-6-[4-(dimethylamino)phenyl]-2-oxo-1,2-dihydropyridine-3-carboxylic acid]	12.5 to 150 (≈ 41.9 to 503 µM)	12.5 to 150 (≈ 41.9 to 503 µM)	12.5 to 150 (≈ 41.9 to 503 µM)	< 1	< 1	12.5 to 150 (≈ 41.9 to 503 µM)	< 1	3.5 to 12.5 (≈ 11.7 to 41.9 µM)	< 1	12.5 to 150 (≈ 41.9 to 503 µM)
CCc1c(-c2ccc(N3CCC3)cc2)[nH]c(=O)c(C(=O)O)c1O [Cpd 83, 6-[4-(azetidin-1-yl)phenyl]-5-ethyl-4-hydroxy-2-oxo-1,2-dihydropyridine-3-carboxylic acid]	12.5 to 150 (≈ 39.8 to 477 µM)	12.5 to 150 (≈ 39.8 to 477 µM)	3.5 to 12.5 (≈ 11.1 to 39.8 µM)	< 1	< 1	12.5 to 150 (≈ 39.8 to 477 µM)	< 1	3.5 to 12.5 (≈ 11.1 to 39.8 µM)	< 1	12.5 to 150 (≈ 39.8 to 477 µM)
CC(C)c1c(-c2ccc(N(C)C)cc2)[nH]c(=O)c(C(=O)O)c1O [Cpd 96, 6-[4-(dimethylamino)phenyl]-4-hydroxy-2-oxo-5-(propan-2-yl)-1,2-dihydropyridine-3-carboxylic acid]	12.5 to 150 (≈ 39.5 to 474 µM)	12.5 to 150 (≈ 39.5 to 474 µM)	3.5 to 12.5 (≈ 11.1 to 39.5 µM)	< 1	< 1	12.5 to 150 (≈ 39.5 to 474 µM)	< 1	3.5 to 12.5 (≈ 11.1 to 39.5 µM)	< 1	12.5 to 150 (≈ 39.5 to 474 µM)
CCc1c(-c2ccc(-n3ccnc3)cc2)[nH]c(=O)c(C(=O)O)c1O [Cpd 107, 5-ethyl-4-hydroxy-6-[4-(1H-imidazol-1-yl)phenyl]-2-oxo-1,2-dihydropyridine-3-carboxylic acid]	12.5 to 150 (≈ 38.4 to 461 µM)	12.5 to 150 (≈ 38.4 to 461 µM)	12.5 to 150 (≈ 38.4 to 461 µM)	1 to 3.5 (≈ 3.07 to 10.8 µM)	< 1	12.5 to 150 (≈ 38.4 to 461 µM)	< 1	12.5 to 150 (≈ 38.4 to 461 µM)	< 1	12.5 to 150 (≈ 38.4 to 461 µM)
CCc1cc(C(=O)O)c(=O)[nH]c1-c1ccc(N2CCCCC2)cc1 [Cpd 108, 5-ethyl-2-oxo-6-[4-(piperidin-1-yl)phenyl]-1,2-dihydropyridine-3-carboxylic acid]	12.5 to 150 (≈ 38.3 to 460 µM)	12.5 to 150 (≈ 38.3 to 460 µM)	12.5 to 150 (≈ 38.3 to 460 µM)	< 1	< 1	12.5 to 150 (≈ 38.3 to 460 µM)	< 1	12.5 to 150 (≈ 38.3 to 460 µM)	< 1	12.5 to 150 (≈ 38.3 to 460 µM)
CCc1cc(C(=O)O)c(=O)[nH]c1-c1ccc(N2CCOCC2)cc1 [Cpd 110, 5-ethyl-6-[4-(morpholin-4-yl)phenyl]-2-oxo-1,2-dihydropyridine-3-carboxylic acid]	12.5 to 150 (≈ 38.1 to 457 µM)	12.5 to 150 (≈ 38.1 to 457 µM)	12.5 to 150 (≈ 38.1 to 457 µM)	< 1	< 1	12.5 to 150 (≈ 38.1 to 457 µM)	< 1	3.5 to 12.5 (≈ 10.7 to 38.1 µM)	< 1	12.5 to 150 (≈ 38.1 to 457 µM)
CCc1cc(C(=O)O)c(=O)[nH]c1-c1ccc(N2CCC2)cc1 [Cpd 111, 6-[4-(azetidin-1-yl)phenyl]-5-ethyl-2-oxo-1,2-dihydropyridine-3-carboxylic acid]	12.5 to 150 (≈ 41.9 to 503 µM)	12.5 to 150 (≈ 41.9 to 503 µM)	12.5 to 150 (≈ 41.9 to 503 µM)	< 1	< 1	12.5 to 150 (≈ 41.9 to 503 µM)	< 1	1 to 3.5 (≈ 3.35 to 11.7 µM)	< 1	12.5 to 150 (≈ 41.9 to 503 µM)
CCc1c(-c2ccc(N3CCCC3=O)cc2)[nH]c(=O)c(C(=O)O)c1O [Cpd 115, 5-ethyl-4-hydroxy-2-oxo-6-[4-(2-oxopyrrolidin-1-yl)phenyl]-1,2-dihydropyridine-3-carboxylic acid]	12.5 to 150 (≈ 36.5 to 438 µM)	12.5 to 150 (≈ 36.5 to 438 µM)	12.5 to 150 (≈ 36.5 to 438 µM)	< 1	< 1	12.5 to 150 (≈ 36.5 to 438 µM)	< 1	3.5 to 12.5 (≈ 10.2 to 36.5 µM)	< 1	12.5 to 150 (≈ 36.5 to 438 µM)
